Laboratory results from patent publication US12478598B2 (Rush University Medical Center, priority 2019, dated 2025).

Experiments:
[1] = tested on: lenti-GLDC shRNA-insulted mice; experiment: Glycine level in cortex of lenti-GLDC shRNA-insulted mice (fluorometric assay kit); format: in vivo, C57/BL6 mice; settings: oral, 14 d of treatment
Method: FIG. 2. […] C57/BL6 mice (8-10 week old) received lentiviral GLDC shRNA (1×10^7 IFU/mouse in 100 μl HBSS) once via tail-vein injection. Therefore, control mice also received 100 μl HBSS via tail-vein. From 7 d after lenti-GLDC shRNA injection, mice were treated with different doses (50 and 100 mg/kg body wt/d) of CA daily via gavage. After 14 d of CA treatment, the level of glycine was measured in cortex by using a fluorometric assay kit (Biovision). Each mouse sample was run in triplicate. Results are mean±SEM of five mice per group.
(§1) C57/BL6 mice (8-10 week old) received lentiviral GLDC shRNA (1×10^7 IFU/mouse in 100 μl Hank's Balanced Salt Solution or HBSS) once via tail-vein injection (FIG. 1). Therefore, a group of control mice received only 100 μl HBSS via tail-vein injection.
(§2) Therefore, one group of lenti-GLDC shRNA-insulted mice were also treated with 100 μl 0.5% methyl cellulose as vehicle control.
On 14 d of treatment, mice were sacrificed and level of glycine was measured in brain (cortex).

[2] = tested on: lenti-GLDC shRNA-insulted mice; experiment: Barnes maze spatial learning and memory in lenti-GLDC shRNA-insulted mice; format: in vivo, C57/BL6 mice; settings: 50 and 100 mg/kg body wt/d, daily gavage, after 7 d of treatment
Method: FIG. 1A-1B. […] C57/BL6 mice (8-10 week old) received lentiviral GLDC shRNA (1×10^7 IFU/mouse in 100 μl Hank's Balanced Salt Solution or HBSS) once via tail-vein injection. Therefore, control mice also received 100 μl HBSS via tail-vein. From 7 d after lenti-GLDC shRNA injection, mice were treated with different doses (50 and 100 mg/kg body wt/d) of CA daily via gavage. After 7 d of CA treatment, spatial learning and memory was monitored by Barnes maze (FIG. 1A, latency; FIG. 1B, errors). Results are mean±SEM of five mice per group.
as §1, §2
Lenti-GLDC shRNA-insulted mice took longer time to find the correct hole (FIG. 1A) and made more errors (FIG. 1B) as compared to HBSS-treated control mice.

O=C(O)C=Cc1ccccc1 [cinnamic acid]
level of glycine in the cortex ([1]; 50 mg/kg body wt/d): very effective in lowering the level of glycine
level of glycine in the cortex ([1]; 50 and 100 mg/kg body wt/d): strongly inhibited the level of glycine
errors in reaching the target hole (Barnes maze) [2]: significantly reduced latency and errors
latency in reaching the target hole (Barnes maze) [2]: significantly reduced latency
